# Measurements: US5200412A, “Heterobicyclic containing benzene sulfonamides which are platelet activating factor antagonists” (British Bio-Technology Limited, priority 1990, dated 1993)
# What was measured:
# [1] = system: PAF-induced bronchoconstriction; test: inhibition of PAF-induced bronchoconstriction in the guinea pig; assay type: in vivo, Male Dunkin-Hartley guinea-pigs; details: 10 mg/kg p.o., 1 hour before PAF 40 ng/kg/min i.v. infusion
# Experimental: The inhibition of PAF induced bronchoconstriction was measured in anaesthetised artificially ventilated guinea-pigs (450-500 g) using a modified version of the Konzett-Rossler technique (Konzett M and Rossler R, Naunym-Schmiedeb. Arch. Exp. Pathol. Pharmakol., 1940, 197, 71) Male Dunkin-Hartley guinea-pigs were anaesthetised with urethane, 1.6 g/kg. Through a midline neck incision, the trachea was cannulated and the animal ventilated with a constant tidal volume set between 5 and 15 ml, to give a tracheal inflation pressure of 15 mmHg at a rate of 40 per minute. A carotid artery was cannulated for the measurement of blood pressure and heart rate and both jugular veins were cannulated, one for the infusion of PAF and the other for the administration of test compounds. PAF, 40 ng/kg/min in saline with 0.25% bovine serum albumin, was infused i.v. to produced a 100% increase in tracheal inflation pressure, and bronchoconstrictor effects were determined. Test compounds were administered p.o. (10 mg/kg) 1 hour before the infusion of PAF was started whilst the animals were conscious.
# [2] = system: PAF-induced hypotension; test: reversal of PAF-induced hypotension in the rat; assay type: in vivo, Male Sprague-Dawley rats; details: iv, anaesthetised rats, i.v. bolus, PAF 100 ng/kg/min i.v. infusion, read-out: ED50 (50% reversal of the hypotensive PAF response)
# Experimental: (§1) Compounds of general formula I inhibit PAF-induced functions in both the cellular and tissue levels by changing the PAF binding to its specific receptor site. The ability of compounds of general formula I to inhibit the binding of PAF to its specific receptor binding site on human platelet plasma membranes was measured according to Pharmacological Example 1. The ability of compounds of general formula I to reverse the hypotension caused by an infusion of PAF in rats was measured according to Pharmacology Example 2.
# Male Sprague-Dawley rats (300-350 g) were anaesthetised with a mixture of sodium pentobarbitone, 22.5 mg/kg and thiopental 62.5 mg/kg. Through a midline incision in the neck, the trachea was cannulated and the animals, breathed spontaneously. A carotid artery was cannulated for the measurement of blood pressure and this signal was used to trigger a rate meter to measure heart rate. Both jugular veins were cannulated: one for the infusion of PAF and the other for the bolus administration of test compounds.
# PAF, 100 ng/kg/min was infused i.v. until a sustained fall in mean blood pressure of 50 mmHg was achieved. […] Also presented in Table 2 is the result for a comparative example (N-cyclohexyl-N-methyl-4-(1H-imidazo[4,5-c]pyridylmethyl)benzamide. This compound (a PAF antagonist described in EP-A-0260613) is not within the scope of the invention.
# [3] = target: T1, PAF receptor (Homo sapiens, UniProt P25105); test: inhibition of 3H-PAF binding to human platelet plasma membrane; details: human platelet membranes, 0.5 nM 3H-PAF, 1 hour incubation at 0° C., pH 7.0
# T1 construct: Platelet concentrates were obtained from a hospital blood bank; from tissue; host or cells: human platelets (hospital blood bank concentrates), lysed platelet membrane fraction
# T1 sequence (P25105 whole entry): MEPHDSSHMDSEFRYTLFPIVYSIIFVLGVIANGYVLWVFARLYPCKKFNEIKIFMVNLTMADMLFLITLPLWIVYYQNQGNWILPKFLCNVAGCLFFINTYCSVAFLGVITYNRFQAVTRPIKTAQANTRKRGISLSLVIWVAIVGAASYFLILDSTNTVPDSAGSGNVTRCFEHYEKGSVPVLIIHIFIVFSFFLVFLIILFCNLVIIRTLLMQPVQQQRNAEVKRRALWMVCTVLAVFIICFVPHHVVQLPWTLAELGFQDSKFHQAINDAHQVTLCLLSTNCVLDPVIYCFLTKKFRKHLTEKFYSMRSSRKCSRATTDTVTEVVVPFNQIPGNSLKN
# Experimental: as §1
# The inhibition of 3H-PAF binding to human platelet plasma membrane by compounds of general formula I was determined by isotopic labelling and filtration techniques. Platelet concentrates were obtained from a hospital blood bank. These platelet concentrates (500-2500 ml.) were centrifuged at 800 rpm for 10 minutes in a SORVALL RC3B centrifuge to remove the red blood cells present. (The word SORVALL is a trade mark ) The supernatant was subsequently centrifuged at 3,000 rpm in a SORVALL RC3B centrifuge to pellet the platelets present. The platelet rich pellets were resuspended in a minimum volume of buffer (150 mM NaCl, 10 mM Tris, 2 mM EDTA, pH 7.5) and layered onto Ficoll-Paque gradients, 9 ml platelet concentrate to 2 ml Ficoll, and centrifuged at 1,900 rpm for 15 minutes in a SORVALL RT6000 centrifuge. This step removes the residual red blood cells and other nonspecific material such as lymphocytes from the preparation. The platelets which form a band between the plasma and the Ficoll were removed, resuspended in the above buffer and centrifuged at 3,000 rpm for 10 minutes in a SORVALL RT6000 centrifuge. The pelleted platelets were resuspended in buffer (10 mM Tris, 5 mM MgCl2, 2 mM EDTA, pH 7.0), snap freezed in liquid N2 and allowed to thaw slowly at room temperature in order to lyse the platelets. The latter step was repeated at least 3 times to ensure proper lysis. The lysed platelets were centrifuged at 3,000 rpm for 10 minutes in a SORVALL RT6000 centrifuge and resuspended in buffer. The latter step was repeated twice in order to remove any cytoplasmic proteins which may hydrolyse the platelet activating factor (PAF) receptor The prepared platelet membranes may be stored at -70° C. After thawing the prepared membranes were centrifuged in a SORVALL RT6000 at 3,000 rpm for 10 minutes and resuspended in assay buffer.
# The assay was conducted by preparing a series of Tris-buffered solutions of the selected antagonist of predetermined concentrations. Each of these solutions contained ^3 H-PAF (0.5 nM; 1-O-[^3 H]octadecyl-2-acetyl-sn-glycero-3-phosphoryl choline with a specific activity of 132 Ci/mmol), […], a known amount of the test antagonist, and a sufficient amount of Tris-buffer solution (10 mM Tris, 5 mM MgCl2, pH 7.0, 0.25% BSA) to make the final volume 1 ml. Incubation was initiated by the addition of 100 μg of the isolated membrane fraction to each of the above solutions at 0° C. Two control samples, one (Cl) which contained all the ingredients described above except the antagonist and the other (C2) contains Cl plus a 1000-fold excess of unlabelled PAF, were also prepared and incubated simultaneously with the test samples. After 1 hour incubation, each solution was filtered rapidly under vacuo through a WHATMAN GF/C glass fibre filter in order to separate unbound PAF from bound PAF. (The word WHATMAN is a trade mark.) The residue in each case was rapidly washed 4 times with 5 ml cold (4° C.) Tris-buffer solution. Each washed residue was dried under vacuum on a sampling manifold and placed into vials containing 20 ml of OPTIPHASE MP scintillation fluid and the radioactivity counted in a liquid scintillation counter. […]
# [4] = system: endotoxin induced hypotension; test: reversal of endotoxin induced hypotension in the rat; assay type: in vivo; details: iv, read-out: ED50 (50% reversal of the endotoxin induced hypotension)
# Experimental: Rats were anaesthetised with a mixture of sodium pentobarbitone, 22.5 mg/kg, and thiopental, 62.5 mg/kg. The animals breathed spontaneously, air enriched with oxygen, and a carotid artery was cannulated for the measurement of blood pressure and heart rate. […] Test compounds were administered i.v. via the other jugular vein as a bolus.
SMILES,% Inhibition of PAF-induced bronchoconstriction [1],ED50 [2],IC50 [3],ED50 [4]
"C=CCN([C@@H](CC(C)C)C(=O)OCC)S(=O)(=O)c1ccc(Cn2c(C)nc3cnccc32)cc1 [60(B), N-Allyl-N-4-(1H-2-methylimidazo[4,5-c]pyridylmethyl)phenylsulphonyl-L-leucine ethyl ester]",60%,–,–,–
"CCOC(=O)[C@H](CC(C)C)N(CC(=O)OC(C)(C)C)S(=O)(=O)c1ccc(Cn2c(C)nc3cnccc32)cc1 [69(B), N-t-butoxycarbonylmethyl-N-4-(1H-2-methylimidazo[4,5-c]pyridylmethyl)phenylsulphonyl-L-leucine ethyl ester]",60%,–,–,–
"CN(C(=O)c1ccc(Cn2cnc3cnccc32)cc1)C1CCCCC1 [Comparative Example, N-Cyclohexyl-N-methyl-4-(1H-imidazo[4,5-c]pyridylmethyl)benzamide, reference compound]",–,150 µg/kg,–,–
"CC[C@H](C)[C@H](NS(=O)(=O)c1ccc(Cn2c(C)nc3ccccc32)cc1)C(=O)OC [Example 6, N-4-(1H-2-Methylbenzimidazolylmethyl)phenylsulphonyl-L-isoleucine methyl ester]",–,–,30 nM,–
"COC(=O)[C@H](CC(C)C)NS(=O)(=O)c1ccc(Cn2c(C)nc3ccccc32)cc1 [Example 7, N-4-(1H-2-Methylbenzimidazolylmethyl)phenylsulphonyl-L-leucine methyl ester]",–,11.6 µg/kg,20 nM,–
"COC(=O)[C@H](COCc1ccccc1)NS(=O)(=O)c1ccc(Cn2c(C)nc3ccccc32)cc1 [Example 12, N-4-(1H-2-Methylbenzimidazolylmethyl)phenylsulphonyl-O-benzyl-L-serine methyl ester]",–,21 µg/kg,–,–
"CCOC(=O)[C@H](CC(C)C)NS(=O)(=O)c1ccc(Cn2c(C)nc3ccccc32)cc1 [Example 14, N-4-(1H-2-Methylbenzimidazolylmethyl)phenylsulphonyl-L-leucine ethyl ester]",–,–,15 nM,–
"COC(=O)[C@H](CC(C)C)NS(=O)(=O)c1ccc(Cn2c(C)nc3cnccc32)cc1 [Example 32B, N-4-(1H-2-methylimidazo[4,5-c]pyridylmethyl)phenylsulphonyl-L-leucine methyl ester]",–,2.1 µg/kg,8 nM,15.5 µg/kg
"CCOC(=O)[C@H](CC(C)C)NS(=O)(=O)c1ccc(Cn2c(C)nc3cnccc32)cc1 [Example 35B, N-4-(1H-2-methylimidazo[4,5-c]pyridylmethyl)phenylsulphonyl-L-leucine ethyl ester]",–,–,0.2 nM,2.9 µg/kg
"CCOCCOC(=O)[C@H](CC(C)C)NS(=O)(=O)c1ccc(Cn2c(C)nc3ccncc32)cc1 [Example 42A, N-4-(3H-2-Methylimidazo[4,5-c]pyridylmethyl)phenylsulphonyl-L-leucine 2-ethoxyethyl ester]",–,–,2 nM,–
"Cc1nc2cnccc2n1Cc1ccc(S(=O)(=O)N[C@@H](CC(C)C)C(=O)OCCOCc2ccccc2)cc1 [Example 43B, N-4-(1H-2methylimidazo[4,5-c]pyridylmethyl)phenylsulphonyl-L-leucine 2-benzoxyethyl ester]",–,–,1 nM,–
"CCOC(=O)[C@H](CC(C)C)N(C)S(=O)(=O)c1ccc(Cn2c(C)nc3cnccc32)cc1 [Example 53B, N-Methyl-N-4-(1H-2-methylimidazo[4,5-c]pyridylmethyl)phenylsulphonyl-L-leucine ethyl ester]",91%,0.5 µg/kg,0.15 nM,–
"CCOC(=O)[C@H](CC(C)C)N(C)S(=O)(=O)c1ccc(Cn2c(C)nc3ccccc32)cc1 [Example 54, N-Methyl-N-4-(1H-2-methylbenzimidazolylmethyl)phenylsulphonyl-L-leucine ethyl ester]",–,–,3 nM,–
"Cc1nc2cnccc2n1Cc1ccc(S(=O)(=O)N(C)[C@@H](CC(C)C)C(=O)OC(C)C)cc1 [Example 56B, N-Methyl-N-4-(1H-2-methylimidazo[4,5-c]pyridylmethyl)phenylsulphonyl-L-leucine i-propyl ester]",72%,0.6 µg/kg,–,–
"CCCCOC(=O)[C@H](CC(C)C)N(C)S(=O)(=O)c1ccc(Cn2c(C)nc3cnccc32)cc1 [Example 57B, N-methyl-N-4-(1H-2-methylimidazo[4,5-c]pyridylmethyl)phenylsulphonyl-L-leucine n-butyl ester]",–,–,1 nM,–
